Results taken from patent US20100119620A1, “SUPPRESSING MICROBIAL GROWTH IN PULP AND PAPER” (priority 2006, published 2010).

Legend:
[1] = tested on: Sphaerotilus natans (ATCC 1529); assay: Mean Biocidal Concentration for 100% kill of filamentous test isolate in buffered water (pH 7.2); format: cell-based
Procedure: Two biocide solutions were evaluated and included NaOCl and NaOCl mixed with urea at a 1:1 molar ratio. The unstabilized NaOCl solution was 3% as Cl2 in water. To prepare the stabilized chlorine solution we blended 5.0 mL NaOCl (3% as Cl2 in water) with 5.0 mL of an aqueous solution of urea and sodium hydroxide (0.5M urea in 5% NaOH). In the case of the stabilized chlorine the NaOCl and urea were mixed prior to introduction to buffered water (pH 7.2) inoculated with approximately 1×10^5 bacterial filaments/mL of the filamentous test isolate. The filamentous test isolate used in this evaluation was Sphaerotilus natans (ATCC 1529). The Mean Biocidal Concentration was identified as the test chlorine concentration in ppm of total chlorine (Cl2) required for 100% kill of the filamentous test isolate.

[2] = Halogen residuals (total and free) measured using DPD reagent after blending NaOCl with urea/NaOH; format: physicochemical
Procedure: We blended 5.0 mL NaOCl (3% as Cl2 in water) with 5.0 mL of an aqueous solution of urea and sodium hydroxide (0.5M urea in 5% NaOH). To achieve a 2:1 molar ratio of chlorine to urea we blended 5.0 mL NaOCl (3% as Cl2 in water) with 5.0 mL of an aqueous solution of urea and sodium hydroxide (0.25M urea in 5% NaOH). Halogen residuals were measured using DPD reagent, and were recorded 3 minutes after mixing with the reagent.
Because of the higher yield, less halogen is required to achieve the desired anti-microbial effect under these test conditions. […] The advantages of increased yield and improved anti-microbial activity are shown in Example 2.

[3] = tested on: bacteria native to the process water sample; assay: Bacterial density in paper process water (coated groundwood mill, pH 7.9) dosed with halogen, with re-challenge; format: cell-based
Procedure: The unstabilized bleach solution was 3% as Cl2 in water. To prepare the stabilized chlorine solution we blended 5.0 mL NaOCl (3% as Cl2 in water) with 5.0 mL of an aqueous solution of urea and sodium hydroxide (0.5M urea in 5% NaOH). We then blended 5.0 mL NaOCl (3% as Cl2 in water) with 5.0 mL of an aqueous solution of urea and sodium hydroxide (0.25M urea in 5% NaOH). This yielded a 2:1 molar ratio of chlorine to urea.
Paper process water was collected from a mill in the Northeastern US producing coated groundwood printing and writing grades (pH 7.9). Samples were dosed with halogen and plated after one and four hours. Following the four-hour sampling, process water was challenged with 1% (volume/volume) of untreated process water and samples were plated again after 24 hours.

[4] = pH after mixing 9.8, recorded 3 minutes after mixing with DPD reagent

For `[Na+].[O-]Cl` [NaOC1, sodium hypochlorite], the “Mean Biocidal Concentration S. natans” value ([1]; contact time 0.5 hours) was 5 ppm Total C12, the “Mean Biocidal Concentration S. natans” value ([1]; contact time 1 hour) was 5 ppm Total C12 and the “Mean Biocidal Concentration S. natans” value ([1]; contact time 3.5 hours) was 5 ppm Total C12. For the same compound, the “Mean Biocidal Concentration S. natans” value ([1]; contact time 9 hours) was 5 ppm Total C12, the “Free Halogen (% Yield)” value [2, 4] was 100 % Yield and the “Total Halogen (% Yield)” value [2, 4] was 100 % Yield. The “Free Halogen (% Yield)” value ([2]; pH after mixing 13.0) was 100 % Yield, the “Total Halogen (% Yield)” value ([2]; pH after mixing 13.0) was 100 % Yield and the “Free Halogen (% Yield)” value ([2]; pH after mixing 13.5) was 100 % Yield. The “Total Halogen (% Yield)” value ([2]; pH after mixing 13.5) was 100 % Yield, the “Bacterial Density” value ([3]; 2.5 ppm Total C12, contact time 1 hour) was 2 log 10 CFU/mL and the “Bacterial Density” value ([3]; 2.5 ppm Total C12, contact time 4 hours) was 3.5 log 10 CFU/mL. For the same compound, the “Bacterial Density” value ([3]; 2.5 ppm Total C12, contact time 24 hours, after challenge with 1% (v/v) untreated process water at 4 hours) was 7.4 log 10 CFU/mL, the “Bacterial Density” value ([3]; 10 ppm Total C12, contact time 1 hour) was 2 log 10 CFU/mL and the “Bacterial Density” value ([3]; 10 ppm Total C12, contact time 4 hours) was 2 log 10 CFU/mL. The “Bacterial Density” value ([3]; 10 ppm Total C12, contact time 24 hours, after challenge with 1% (v/v) untreated process water at 4 hours) was 7.3 log 10 CFU/mL.
